{
  "source": "patent US10190138B2",
  "about": "“Methods using short chain peracids to replace antibiotics for controlling fermentation process infection” (Ecolab USA Inc., priority 2012, dated 2019)",
  "key": {"[1]": {"details": "pH 4", "source_text": "The issue of low solubility when using long chain peracids has been addressed by increasing the pH to above 7. […] Further, bleaching efficacy decreases proportionally with every pH unit increase over about 7."}, "L. fermentum": {"test_system": "L. fermentum", "experiment": "MRS broth fermentation, CO2 respirometry", "assay_type": "cell-based, Lactobacillus fermentum", "details": "1 ppm, 1×10^5 cell/mL start", "method": "Solutions of Vortexx and Octave were provided by the Ecolab, Inc. The antibiotic Virginiamycin was purchased from SantaCruz Biotechnology. Ethanol Red yeast (Fermentis), and Lactobacillus fermentum were revived from 10% glycerol stocks maintained at […]. Yeast was grown at 30° C. under aerobic conditions in either liquid YPD medium or on YPD agar prior to use in propagations and fermentations. Bacteria were grown at 30° C. under anaerobic conditions in either liquid MRS broth, and or on MRS agar plates. Liquefied corn mash and gluco-amylase enzyme was provided by Illinois River Energy (Rochelle, Ill.).\nFermentations were conducted in Wheaton glass bottles placed in a 30° C. recirculating water bath atop an 8-position magnetic stir-plate. Each bottle was sealed with a rubber septum cap and connected through ⅛″ tubing to a respirometer instrument (Challenger Instruments), which quantified the off-gassing of CO2 during fermentation.\nMRS broth fermentations were conducted in 0.125 L Wheaton bottles, each containing the 100 mL of MRS broth and 4 mL propagated bacteria. […]\nMRS broth, which contains only 0.6% solids compared to typical liquefied corn mash at 30% solids, represents a relatively simple test of the effectiveness of the peracid chemistries for controlling Lactobacillus growth. […] All bottles were placed monitored via respirometry under identical conditions. […]"}, "Lactobacilli": {"test_system": "Lactobacilli", "details": "2 hours of contact time in the absence of yeast; cited from earlier work"}},
  "data": [
    {"compound": "O=C(CCCCCCCCCCS(=O)(=O)O)OO", "note": "[11-sulfoundecane peroxoic acid]", "values": [
      {"measurement": "solubility", "setting": "[1]", "result": "about 1.3%"}
    ]},
    {"compound": "Virginiamycin", "values": [
      {"measurement": "CO2 production", "setting": "L. fermentum", "result": "failed to produce any CO2"},
      {"measurement": "bacterial growth", "setting": "L. fermentum", "result": "no bacterial growth"}
    ]},
    {"compound": "OO", "note": "[hydrogen peroxide]", "values": [
      {"measurement": "hydrogen peroxide required for effective bacterial control", "setting": "Lactobacilli", "result": 600, "unit": "ppm"}
    ]}
  ]
}
